Tested on: TNF-α production in mouse peritoneal macrophages
Experiment: Inhibition of TNF-α in vitro (mouse peritoneal macrophages, LPS/interferon-γ, Luminex)
Type: cell-based
Settings: suppression of TNF-α; macrophages treated with 50 ng/mL LPS and 10 U/mL interferon-γ for 18 h
Experimental: Mouse Peritoneal Macrophages
1 mL thioglycolate broth (5.0 g yeast extract, 15.0 g casitone or trypticase, 5.0 g dextrose, 2.5 g sodium chloride, 0.75 g L-cystine, 0.5 g sodium thioglycolate, 1.0 mg resazurin, and 0.75 g agar in 1.0 L distilled water) is injected into the peritoneal cavity of Balb/C female mice. At day 4 or 5 post-injection the mice are sacrificed and then injected i.p. with 4 mL RPMI-1640 medium (BioWhittaker) and the peritoneal macrophages are withdrawn by syringe.
Mouse peritoneal microphages are counted with a hemocytometer and adjusted to 5×10^5 cells/well in 96-well plates in RPMI-1640 medium with 10% fetal bovine serum. 200 μL/well is plated in 96-well plates and the cells allowed to settle and adhere to the bottom of the well for at least 3 h. The test compound or standard p38 kinase inhibitor is pre-treated using a series of 8 concentrations for 1 h at 37° C. (20 μL/well). The cells are treated with a mixture of 50 ng/mL lipopolysaccharide (LPS) and 10 U/mL interferon-γ for 18 h at 37° C. (20 μL/well). The conditioned media is harvested and assayed for TNF-α production using the Luminex procedure.
TNF-α/Luminex Detection Assay (Bio-Rad Bio-Plex Kit—Catalog #171-G12221)
The lyophilized premixed TNF-α standard (1 standard tube/two 96-well plates) is reconstituted with 50 μL sterile water (500,000 pg/mL). The samples are vortexed for 5 seconds, incubated on ice for 30 min, and vortexed for 5 seconds before use. A set of twelve 1.5 mL tubes are labeled with #1-thru #12 and then the amounts of cell media shown below added to the appropriate tubes (standard concentrations are as follows: 50,000; 25,000; 12,500; 6,250; 3,125; 1,562.5; 781.3; 390.6; 195.3; 97.7; 48.8; and 24.4 pg/mL). The premixed anti-cytokine conjugated beads are vortexed (25×) vigorously for 30 seconds. The anti-cytokine conjugated beads are diluted to a 1× concentration using 1× Bio-Plex Assay Buffer. For every plate, 240 μL of the pre-mixed beads is added to 5760 μL of Bio-Plex Assay Buffer. A Millipore 96-well filter plate is blocked with 100 μL/well of blocking buffer. The blocking buffer is filtered through using a Millipore filtration system and then toweled dry. 2 washes are performed on the filter plate with 100 μL/well of Bio-Plex Assay Buffer and toweled dry. The 1× anti-cytokine conjugated beads are vortexed for 15 seconds and added 50 μL to each well. This is filtered through and toweled dry. 2 washes are performed on plates with 100 μl/well of Bio-Plex Wash Buffer. Again, it is filtered through and toweled dry. 50 μL of sample or standard is added to each sample well. This is incubated for 60 seconds at RT on a shaker protected from light at setting 6 and then for 30 min at setting 3 and then placed in the refrigerator overnight. 3 washes are performed with Bio-Plex Wash Buffer. Filter through and toweled dry. The cytokine detection antibody is prepared (˜10 min prior to use) for every plate and 60 μL of the premixed cytokine detection antibody stock is added to 5940 μL of Bio-Plex Detection Antibody Diluent. 50 μL of cytokine detection antibody is added and incubated for 60 seconds at RT on a shaker protected from light at setting 6 and then for 30 min at setting 3.3 washes are performed with the Bio-Plex Wash Buffer. This is filtered through and toweled dry. Strept-PE (˜10 minutes prior to use) is prepared for every plate and 60 μL to 5940 μL of Bio-Plex Assay Buffer added. 50 μL of Streptavidin-PE is added to each well and incubated for 60 seconds at RT on a shaker protected from light at setting 6 and then for 10 min at setting 3. 3 washes are performed with Bio-Plex Wash-Buffer. This is filtered through. The beads are re-suspended in 100 μL/well of Bio-Plex Assay Buffer. Standards and samples are read on a Luminex machine. […]

IC50: 6.3 nM
SMILES: CC(C)(C)Cn1c(N)nc2ccc(-c3nc(C(C)(C)C)[nH]c3-c3ccc(F)cc3)nc21.CS(=O)(=O)O.CS(=O)(=O)O [EXAMPLE 104, Crystalline 5-[2-tert-Butyl-5-(4-fluoro-phenyl)-1H-imidazol-4-yl]-3-(2,2-dimethyl-propyl)-3H-imidazo[4,5-b]pyridin-2-ylamine dimethanesulfonate]

Reference: patent US7582652B2, “Kinase inhibitors” (Eli Lilly and Company, priority 2004, dated 2009)
